In this assay the target is T1, PARP-1 enzyme (Homo sapiens, UniProt P09874).
T1 construct: made in house
Briefly: in vitro filtration assay for PARP-1 inhibitory activity. The class given is biochemical. Particulars: [32P]-NAD, histones, nicked DNA; dose-response 10^-5 M to 10^-8 M; read-out: in vitro filter assay PARP-1 pIC50 (converted). The protocol:
In Vitro Filtration Assay for PARP-1 Inhibitory Activity
Compounds of the present invention were tested in an in vitro filtration assay assessing PARP-1 activity (triggered in the presence of nicked DNA) by means of its histone poly (ADP-ribosylation activity using [^32P]-NAD as ADP-ribosyl donor. The radioactive ribosylated histones were precipitated by trichloroacetic acid (TCA) in 96-well filterplates and the incorporated [^32P] measured using a scintillation counter
A mixture of histones (stock solution: 5 mg/ml in H2O), NAD^+ (stock solution: 100 mM in H2O), and [^32P]-NAD^+ in incubation buffer (50 mM Tris/HCl, pH 8; 0.2 mM DTT; 4 mM MgCl2) was made. A mixture of the PARP-1 enzyme (5-10 μg/ml) and nicked DNA was also made. The nicked DNA was prepared as described in the in vitro SPA for PARP-1 inhibitory activity. Seventy-five μl of the PARP-1 enzyme/DNA mixture together with 1 μl of compound in DMSO and 25 μl of histones-NAD^+/[^32P]-NAD^+ mixture was added per well of a 96-well filterplate (0.45 μm, supplier Millipore). The final concentrations in the incubation mixture were 2 μg/ml for the histones, 0.1 mM for the NAD^+, […] (0.5 μC) for the [^32P]-NAD^+ and 2 μg/ml for the nicked DNA. Plates were incubated for 15 min. at room temperature and the reaction was terminated by the addition of 10 μl ice cold 100% TCA followed by the addition of 10 μl ice-cold BSA solution (1% in H2O). The protein fraction was allowed to precipitate for 10 min. at 4° C. and plates were vacuum filtered. The plates were subsequently washed with, for each well, 1 ml of 10% ice cold TCA, 1 ml of 5% ice cold TCA and 1 ml of 5% TCA at room temperature. Finally 100 μl of scintillation solution (Microscint 40, Packard) was added to each well and the plates were transferred to a TopCountNXT™ (supplier: Packard) for scintillation counting and values were expressed as counts per minute (cpm). For each experiment, controls (containing PARP-1 enzyme and DMSO without compound), a blank incubation (containing DMSO but no PARP-1 enzyme or compound) and samples (containing PARP-1 enzyme and compound dissolved in DMSO) were run in parallel. All compounds tested were dissolved and eventually further diluted in DMSO. In first instance, compounds were tested at a concentration of 10^−5M. […] In each test, the blank value was subtracted from both the control and the sample values. The control sample represented maximal PARP-1 enzyme activity. For each sample, the amount of cpm was expressed as a percentage of the mean cpm value of the controls. When appropriate, IC50-values (concentration of the drug, needed to reduce the PARP-1 enzyme activity to 50% of the control) were computed using linear interpolation between the experimental points just above and below the 50% level. Herein the effects of test compounds are expressed as pIC50 (the negative log value of the IC50-value). As a reference compound, 4-amino-1,8-naphthalimide was included to validate the filtration assay.

T1 sequence (P09874 whole entry): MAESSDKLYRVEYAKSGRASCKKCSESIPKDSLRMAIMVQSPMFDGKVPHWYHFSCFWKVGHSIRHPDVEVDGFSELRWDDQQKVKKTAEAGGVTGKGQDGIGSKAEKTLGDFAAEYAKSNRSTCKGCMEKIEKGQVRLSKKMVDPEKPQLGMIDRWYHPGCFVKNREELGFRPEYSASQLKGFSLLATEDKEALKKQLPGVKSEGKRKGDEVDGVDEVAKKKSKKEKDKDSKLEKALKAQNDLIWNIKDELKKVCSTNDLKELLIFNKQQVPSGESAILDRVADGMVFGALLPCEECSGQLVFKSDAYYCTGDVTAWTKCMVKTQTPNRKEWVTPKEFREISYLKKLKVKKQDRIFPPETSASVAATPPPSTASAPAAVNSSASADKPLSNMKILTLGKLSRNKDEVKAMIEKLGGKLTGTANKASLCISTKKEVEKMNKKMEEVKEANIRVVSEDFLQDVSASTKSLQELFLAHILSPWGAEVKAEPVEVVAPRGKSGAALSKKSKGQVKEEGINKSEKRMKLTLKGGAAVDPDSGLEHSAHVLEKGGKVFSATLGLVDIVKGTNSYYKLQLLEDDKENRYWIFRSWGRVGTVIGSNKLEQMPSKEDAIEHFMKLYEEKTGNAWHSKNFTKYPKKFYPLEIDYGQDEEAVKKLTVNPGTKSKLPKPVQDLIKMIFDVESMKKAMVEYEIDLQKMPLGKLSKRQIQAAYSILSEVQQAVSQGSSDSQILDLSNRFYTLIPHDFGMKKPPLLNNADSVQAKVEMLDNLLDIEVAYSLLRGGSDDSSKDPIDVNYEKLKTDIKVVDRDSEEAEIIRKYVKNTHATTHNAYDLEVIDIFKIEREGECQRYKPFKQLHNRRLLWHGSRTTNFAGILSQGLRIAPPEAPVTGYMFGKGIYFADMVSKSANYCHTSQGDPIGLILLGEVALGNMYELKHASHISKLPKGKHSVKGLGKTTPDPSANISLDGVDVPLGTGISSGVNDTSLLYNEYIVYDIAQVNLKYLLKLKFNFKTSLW

In the case of `O=c1[nH]nc(NC2CCN(C[C@@H](O)[C@@H]3CCc4ccccc4O3)CC2)c2ccccc12` (relative stereo) [Compound 27], the IC50 is 215 nM.
Turning to `O=c1[nH]nc(C2CCN(Cc3ccccc3)CC2)c2ccccc12` [Compound 1], the IC50 is 55 nM.
On to `O=c1[nH]nc(N[C@@H]2C[C@H]3CC[C@@H](C2)N3CCCC(c2ccc(F)cc2)c2ccc(F)cc2)c2ccccc12` [Compound 3], for which the IC50 is 204 nM.
Under `O=c1[nH]nc(C2CCNCC2)c2ccccc12` [Compound 4] stands 70.8 nM; under `CCOC(=O)N1[C@@H]2CC[C@H]1C[C@H](Nc1n[nH]c(=O)c3ccccc13)C2` [Compound 11], 30 nM.
With `Clc1nnc(NC2CCN(Cc3ccccc3)C2)c2ccccc12` (centres unmarked) [Compound 12], the IC50 is 188 nM.
`O=c1[nH]nc(C2CCN(CCCOc3ccc(F)cc3)CC2)c2ccccc12` [Compound 13]: the IC50 is 19.1 nM.
Consider `O=c1[nH]nc(N[C@@H]2C[C@H]3CC[C@@H](C2)N3)c2ccccc12` [Compound 15], for which the IC50 was 35.5 nM.
Take `CCOC(=O)N1[C@@H]2CC[C@H]1C[C@H](Nc1nnc(Cl)c3ccccc13)C2` [Compound 24]: the IC50 is 388 nM.
Under `CCOC(=O)N1CCC(c2n[nH]c(=O)c3ccccc23)CC1` [Compound 25] stands 240 nM; under `Cc1nnc(N2CCN(CCCC(c3ccc(F)cc3)c3ccc(F)cc3)CC2)c2ccccc12` [Compound 29], 302 nM.
As to `O=c1[nH]nc(NC2CCCN(CCCC(c3ccc(F)cc3)c3ccc(F)cc3)CC2)c2ccccc12` (centres unmarked) [Compound 30], the IC50 is 230 nM.
In the case of `O=c1[nH]nc(NC2CCCNCC2)c2ccccc12` (centres unmarked) [Compound 34], the IC50 is 49.4 nM.
In the case of `O=c1[nH]nc(NCC2CCCN(Cc3ccccc3)C2)c2ccccc12` (centres unmarked) [Compound 44], the IC50 was 221 nM.
As to `O=c1[nH]nc(NC2CCN(CCCCOc3ccccc3)CC2)c2ccccc12` [Compound 46], the IC50 was 134 nM.
Turning to `CCOC(=O)N1CCC(Nc2n[nH]c(=O)c3ccccc23)C1` (centres unmarked) [Compound 48], the IC50 was 163 nM.
Consider `O=c1[nH]nc(NCC2CCCN(CCCC(c3ccc(F)cc3)c3ccc(F)cc3)C2)c2ccccc12` (centres unmarked) [Compound 49], for which the IC50 was 516 nM.
Under `CCOC(=O)N1CCCC(Nc2n[nH]c(=O)c3ccccc23)CC1` (centres unmarked) [Compound 50] stands 643 nM; under `O=c1[nH]nc(NC2CCN(Cc3ccccc3)C2)c2ccccc12` (centres unmarked) [Compound 51], 300 nM; under `O=c1[nH]nc(N2CCN(CCCC(c3ccc(F)cc3)c3ccc(F)cc3)CC2)c2ccccc12` [Compound 52], 356 nM.
With `O=c1[nH]nc(NC2CCCN(Cc3ccccc3)C2)c2ccccc12` (centres unmarked) [Compound 53], the IC50 is 217 nM.
For `O=c1[nH]nc(N2CCC(c3cccc(C(F)(F)F)c3)C2)c2ccccc12` (centres unmarked) [Compound 55], the IC50 is 210 nM.
For the molecule `CCOC(=O)N1CCC(Nc2n[nH]c(=O)c3ccccc23)CC1` [Compound 56], the IC50 was 774 nM.
`Fc1ccc(C(CCCN2CCN(c3nnc(Cl)c4ccccc34)CC2)c2ccc(F)cc2)cc1` [Compound 57]: the IC50 is 472 nM.
With `CCOC(=O)N1CCN(c2nnc(Cl)c3ccccc23)CC1` [Compound 58], the IC50 is 316 nM.
On to `Clc1nnc(NC2CCN(CCCCOc3ccccc3)CC2)c2ccccc12` [Compound 59], for which the IC50 is 813 nM.
Turning to `CN(c1nc2ccccc2s1)C1CCN(c2nnc(Cl)c3ccccc23)CC1` [Compound 61], the IC50 was 296 nM.
Under `COc1ccc(CCN2CCC(Nc3n[nH]c(=O)c4ccccc34)CC2)cc1` [Compound 63] stands 146 nM.
As to `O=c1[nH]nc(NC2CCN(C/C=C/c3ccccc3)CC2)c2ccccc12` [Compound 65], the IC50 was 91.2 nM.
Turning to `O=c1[nH]nc(C2CCN(C/C=C/c3ccccc3)CC2)c2ccccc12` [Compound 66], the IC50 is 96.4 nM.
Take `O=c1[nH]nc(C2CCN(CCCC(c3ccc(F)cc3)c3ccc(F)cc3)CC2)c2ccccc12` [Compound 67]: the IC50 was 233 nM.
Regarding `O=c1[nH]nc(C2CCN(CCCCOc3ccccc3)CC2)c2ccccc12` [Compound 68], the IC50 is 50 nM.
On to `O=c1[nH]nc(C2CCN(c3ncccn3)CC2)c2ccccc12` [Compound 69], for which the IC50 is 125 nM.
To `Cc1nnc(N2CCN(CCn3c(=O)[nH]c4ccccc4c3=O)CC2)c2ccccc12` [Compound 70] belongs 268 nM.
Under `Cc1nnc(N2CCN(CCn3c(=O)[nH]c4ccccc43)CC2)c2ccccc12` [Compound 71] stands 533 nM; under `Cc1nc2ccccn2c(=O)c1CCN1CCN(c2nnc(C)c3ccccc23)CC1` [Compound 72], 1050 nM.
In the case of `Cc1nc2sccn2c(=O)c1CCN1CCN(c2nnc(C)c3ccccc23)CC1` [Compound 73], the IC50 is 515 nM.
Regarding `Cc1nc2scc(C)n2c(=O)c1CCN1CCN(c2nnc(C)c3ccccc23)CC1` [Compound 74], the IC50 is 610 nM.
With `Cc1nc2n(c(=O)c1CCN1CCN(c3nnc(C)c4ccccc34)CC1)CCS2` [Compound 75], the IC50 was 361 nM.
Regarding `Cc1nc2n(c(=O)c1CCN1CCN(c3nnc(C)c4ccccc34)CC1)CCCS2` [Compound 76], the IC50 was 413 nM.
On to `Clc1nnc(N2CCN(c3ccccc3)CC2)c2ccccc12` [Compound 77], for which the IC50 is 168 nM.

Source of the values: patent publication US7803795B2, “Phthalazine derivatives as parp inhibitors” (Janssen Pharmaceutica N.V., priority 2004, dated 2010).
